Columns and labels:
[1] = test system: Lactobacillus helveticus ZJUIDS12; assay: Antibiotic susceptibility of Lactobacillus helveticus ZJUIDS12 (susceptibility paper, inhibition zone); type: cell-based; design: key to Susceptive type: S: sensitive; I: intermediate; R: insensitive; conditions: according to CLSI 2017
[2] = test system: Helicobacter pylori ATCC43504; assay: Growth inhibition experiment on Helicobacter pylori; type: cell-based

Compound	Susceptive type [1]	susceptibility of Lactobacillus helveticus ZJUIDS12 to the antibiotic (in words) [1]	Inhibition rates to Helicobacter pylori (%) ([2]; Fermentation supernatant)	Inhibition rates to Helicobacter pylori (%) ([2]; Suspension)
NCC[C@H](O)C(=O)N[C@@H]1C[C@H](N)[C@@H](O[C@H]2O[C@H](CN)[C@@H](O)[C@H](O)[C@H]2O)[C@H](O)[C@H]1O[C@H]1O[C@H](CO)[C@@H](O)[C@H](N)[C@H]1O [Amikacin (AK), Amikacin]	S	sensitive		
CC1(C)S[C@@H]2[C@H](NC(=O)[C@H](N)c3ccccc3)C(=O)N2[C@H]1C(=O)O [Ampicillin (AM), Ampicillin]	S	sensitive		
Cc1nnc(SCC2=C(C(=O)O)N3C(=O)[C@@H](NC(=O)Cn4cnnn4)[C@H]3SC2)s1 [Cefazolin(CZ), Cefazolin]	S	sensitive		
O=C(N[C@H](CO)[C@H](O)c1ccc([N+](=O)[O-])cc1)C(Cl)Cl [Chloramphenicol (C), Chloramphenicol]	S	sensitive		
CC[C@H]1OC(=O)[C@H](C)[C@@H](O[C@H]2C[C@@](C)(OC)[C@@H](O)[C@H](C)O2)[C@H](C)[C@@H](O[C@@H]2O[C@H](C)C[C@H](N(C)C)[C@H]2O)[C@](C)(O)C[C@@H](C)C(=O)[C@H](C)[C@@H](O)[C@]1(C)O [Erythromycin (E), Erythromycin]	S	sensitive		
CCn1cc(C(=O)O)c(=O)c2cc(F)c(N3CCNCC3)cc21 [Norfloxacin (NOR), Norfloxacin]	S	sensitive		
CC1(C)S[C@@H]2[C@H](NC(=O)Cc3ccccc3)C(=O)N2[C@H]1C(=O)O [Penicillin G(P), Penicillin G]	S	sensitive		
Cc1ncc([N+](=O)[O-])n1CCO [Positive control, metronidazole]			100	100
Cc1cc(NS(=O)(=O)c2ccc(N)cc2)no1 [Sulfamethoxazole (SXT), Sulfamethoxazole]	R	insensitive		
Gentamicin [Gentamicin (GM)]	I	intermediate		

— patent publication US20230218688A1 (Zhejiang Chinese Medical University, priority 2022, published 2023)
